Reference: ChEMBL document CHEMBL4507311, “Data for DCP probe A-1155463” (2021)

Key:
[1] = target: Casein kinase I isoform gamma-3 (Homo sapiens) (UniProt Q9Y6M4); conditions: Compound concentration 1000.0 nM
[2] = target: Serine/threonine-protein kinase STK11 (Homo sapiens) (UniProt Q15831); conditions: Compound concentration 1000.0 nM
[3] = target: Serine/threonine-protein kinase RIO3 (Homo sapiens) (UniProt O14730); conditions: Compound concentration 1000.0 nM
[4] = target: 5'-AMP-activated protein kinase catalytic subunit alpha-1 (Homo sapiens) (UniProt Q13131); conditions: Compound concentration 1000.0 nM
[5] = target: Serine/threonine-protein kinase DCLK3 (Homo sapiens) (UniProt Q9C098); conditions: Compound concentration 1000.0 nM
[6] = target: BMP-2-inducible protein kinase (Homo sapiens) (UniProt Q9NSY1); conditions: Compound concentration 1000.0 nM
[7] = target: Glycogen synthase kinase-3 alpha (Homo sapiens) (UniProt P49840); conditions: Compound concentration 1000.0 nM
[8] = target: TGF-beta receptor type-1 (Homo sapiens) (UniProt P36897); conditions: Compound concentration 1000.0 nM
[9] = target: Casein kinase I isoform delta (Homo sapiens) (UniProt P48730); conditions: Compound concentration 1000.0 nM
[10] = target: Mitogen-activated protein kinase kinase kinase 12 (Homo sapiens) (UniProt Q12852); conditions: Compound concentration 1000.0 nM
[11] = target: Ribosomal protein S6 kinase alpha-6 (Homo sapiens) (UniProt Q9UK32); conditions: Compound concentration 1000.0 nM
[12] = target: Histamine H4 receptor (Homo sapiens) (UniProt Q9H3N8); conditions: Compound concentration 10.0 uM
[13] = target: Serine/threonine-protein kinase MARK1 (Homo sapiens) (UniProt Q9P0L2); conditions: Compound concentration 1000.0 nM
[14] = target: Serine/threonine-protein kinase D2 (Homo sapiens) (UniProt Q9BZL6); conditions: Compound concentration 1000.0 nM
[15] = target: RAC-alpha serine/threonine-protein kinase (Homo sapiens) (UniProt P31749); conditions: Compound concentration 1000.0 nM
[16] = target: Serine/threonine-protein kinase Nek4 (Homo sapiens) (UniProt P51957); conditions: Compound concentration 1000.0 nM
[17] = target: Serine/threonine-protein kinase 25 (Homo sapiens) (UniProt O00506); conditions: Compound concentration 1000.0 nM
[18] = target: GABA-A receptor; anion channel (Rattus norvegicus) (UniProt O09028+P15431+P18506+P18508+P19969+P20236+P23574+P23576+P28471+P28473+P30191+P62813+P63079+P63138+Q91ZM7+Q9ES14); conditions: Compound concentration 10.0 uM
[19] = target: Activin receptor type-2A (Homo sapiens) (UniProt P27037); conditions: Compound concentration 1000.0 nM
[20] = target: Cyclin-dependent kinase-like 2 (Homo sapiens) (UniProt Q92772); conditions: Compound concentration 1000.0 nM
[21] = target: Ephrin type-A receptor 8 (Homo sapiens) (UniProt P29322); conditions: Compound concentration 1000.0 nM
[22] = target: Delta-type opioid receptor (Homo sapiens, UniProt P41143); assay: GPCRScan assay: inhibition of DOR; set-up: radioligand conc. used [nm] 1.0 – 2.0, parental cells stable HEK
[23] = target: Serine/threonine-protein kinase PAK 3 (Homo sapiens) (UniProt O75914); conditions: Compound concentration 1000.0 nM
[24] = target: Tyrosine-protein kinase Fer (Homo sapiens) (UniProt P16591); conditions: Compound concentration 1000.0 nM
[25] = target: Serine/threonine-protein kinase Nek3 (Homo sapiens) (UniProt P51956); conditions: Compound concentration 1000.0 nM
[26] = system: Phosphatidylinositol 4,5-bisphosphate 3-kinase catalytic subunit alpha isoform (Homo sapiens), P42336 [E545A]; conditions: Compound concentration 1000.0 nM
[27] = system: Tyrosine-protein kinase ABL1 (Homo sapiens), P00519 [Q252H]; conditions: Compound concentration 1000.0 nM
[28] = target: Atypical kinase COQ8A, mitochondrial (Homo sapiens) (UniProt Q8NI60); conditions: Compound concentration 1000.0 nM
[29] = system: Receptor-type tyrosine-protein kinase FLT3 (Homo sapiens), P36888 [UNDEFINED MUTATION]; conditions: Compound concentration 1000.0 nM
[30] = target: Testis-specific serine/threonine-protein kinase 1 (Homo sapiens) (UniProt Q9BXA7); conditions: Compound concentration 1000.0 nM
[31] = target: MAP/microtubule affinity-regulating kinase 4 (Homo sapiens) (UniProt Q96L34); conditions: Compound concentration 1000.0 nM
[32] = target: Mitogen-activated protein kinase kinase kinase 5 (Homo sapiens) (UniProt Q99683); conditions: Compound concentration 1000.0 nM
[33] = target: Alpha-1D adrenergic receptor (Homo sapiens) (UniProt P25100); conditions: Compound concentration 10.0 uM
[34] = target: Serine/threonine-protein kinase 32C (Homo sapiens) (UniProt Q86UX6); conditions: Compound concentration 1000.0 nM
[35] = system: Phosphatidylinositol 4,5-bisphosphate 3-kinase catalytic subunit alpha isoform (Homo sapiens), P42336 [I800L]; conditions: Compound concentration 1000.0 nM
[36] = system: Epidermal growth factor receptor (Homo sapiens), P00533 [G719S]; conditions: Compound concentration 1000.0 nM
[37] = target: SRSF protein kinase 2 (Homo sapiens) (UniProt P78362); conditions: Compound concentration 1000.0 nM
[38] = target: Mitogen-activated protein kinase kinase kinase 10 (Homo sapiens) (UniProt Q02779); conditions: Compound concentration 1000.0 nM
[39] = target: Serine/threonine-protein kinase Nek10 (Homo sapiens) (UniProt Q6ZWH5); conditions: Compound concentration 1000.0 nM
[40] = target: LIM domain kinase 1 (Homo sapiens) (UniProt P53667); conditions: Compound concentration 1000.0 nM
[41] = system: Fibroblast growth factor receptor 3 (Homo sapiens), P22607 [G697C]; conditions: Compound concentration 1000.0 nM
[42] = target: Myosin-IIIa (Homo sapiens) (UniProt Q8NEV4); conditions: Compound concentration 1000.0 nM
[43] = target: Ribosomal protein S6 kinase alpha-4 (Homo sapiens) (UniProt O75676); conditions: Compound concentration 1000.0 nM
[44] = target: SRSF protein kinase 3 (Homo sapiens) (UniProt Q9UPE1); conditions: Compound concentration 1000.0 nM

Sequence of Ribosomal protein S6 kinase alpha-6 (Homo sapiens) (Q9UK32 whole entry): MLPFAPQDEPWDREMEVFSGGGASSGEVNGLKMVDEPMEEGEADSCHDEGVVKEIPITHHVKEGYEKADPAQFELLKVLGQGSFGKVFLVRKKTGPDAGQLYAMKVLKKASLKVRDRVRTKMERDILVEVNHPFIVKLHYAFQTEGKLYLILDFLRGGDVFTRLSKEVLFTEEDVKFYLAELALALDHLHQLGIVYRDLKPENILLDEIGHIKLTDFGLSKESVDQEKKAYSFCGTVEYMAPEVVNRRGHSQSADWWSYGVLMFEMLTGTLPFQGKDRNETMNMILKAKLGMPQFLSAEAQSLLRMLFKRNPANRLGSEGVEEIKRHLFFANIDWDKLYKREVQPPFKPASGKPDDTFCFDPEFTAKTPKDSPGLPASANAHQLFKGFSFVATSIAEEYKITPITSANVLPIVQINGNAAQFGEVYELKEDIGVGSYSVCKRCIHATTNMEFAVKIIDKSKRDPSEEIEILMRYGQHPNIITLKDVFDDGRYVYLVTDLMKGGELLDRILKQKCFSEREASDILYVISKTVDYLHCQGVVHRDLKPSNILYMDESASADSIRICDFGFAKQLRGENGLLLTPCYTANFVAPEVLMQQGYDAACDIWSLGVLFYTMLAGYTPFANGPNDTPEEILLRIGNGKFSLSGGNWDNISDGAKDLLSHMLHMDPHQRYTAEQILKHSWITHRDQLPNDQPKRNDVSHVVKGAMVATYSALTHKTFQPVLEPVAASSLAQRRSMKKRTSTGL
Sequence of Casein kinase I isoform gamma-3 (Homo sapiens) (Q9Y6M4 whole entry, looked up, canonical isoform): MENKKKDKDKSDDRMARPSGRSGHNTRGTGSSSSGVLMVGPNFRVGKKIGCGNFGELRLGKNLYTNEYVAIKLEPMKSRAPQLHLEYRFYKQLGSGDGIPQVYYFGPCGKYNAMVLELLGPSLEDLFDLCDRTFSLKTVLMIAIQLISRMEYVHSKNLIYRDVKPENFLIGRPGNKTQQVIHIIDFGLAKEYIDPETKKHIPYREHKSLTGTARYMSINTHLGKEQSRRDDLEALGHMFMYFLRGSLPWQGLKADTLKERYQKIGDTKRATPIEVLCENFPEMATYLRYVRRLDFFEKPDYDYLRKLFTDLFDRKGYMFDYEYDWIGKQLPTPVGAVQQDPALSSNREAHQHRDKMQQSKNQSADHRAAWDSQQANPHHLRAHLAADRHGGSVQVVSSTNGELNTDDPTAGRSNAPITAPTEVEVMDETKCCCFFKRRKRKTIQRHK
Sequence of Ribosomal protein S6 kinase alpha-4 (Homo sapiens) (O75676 whole entry, looked up): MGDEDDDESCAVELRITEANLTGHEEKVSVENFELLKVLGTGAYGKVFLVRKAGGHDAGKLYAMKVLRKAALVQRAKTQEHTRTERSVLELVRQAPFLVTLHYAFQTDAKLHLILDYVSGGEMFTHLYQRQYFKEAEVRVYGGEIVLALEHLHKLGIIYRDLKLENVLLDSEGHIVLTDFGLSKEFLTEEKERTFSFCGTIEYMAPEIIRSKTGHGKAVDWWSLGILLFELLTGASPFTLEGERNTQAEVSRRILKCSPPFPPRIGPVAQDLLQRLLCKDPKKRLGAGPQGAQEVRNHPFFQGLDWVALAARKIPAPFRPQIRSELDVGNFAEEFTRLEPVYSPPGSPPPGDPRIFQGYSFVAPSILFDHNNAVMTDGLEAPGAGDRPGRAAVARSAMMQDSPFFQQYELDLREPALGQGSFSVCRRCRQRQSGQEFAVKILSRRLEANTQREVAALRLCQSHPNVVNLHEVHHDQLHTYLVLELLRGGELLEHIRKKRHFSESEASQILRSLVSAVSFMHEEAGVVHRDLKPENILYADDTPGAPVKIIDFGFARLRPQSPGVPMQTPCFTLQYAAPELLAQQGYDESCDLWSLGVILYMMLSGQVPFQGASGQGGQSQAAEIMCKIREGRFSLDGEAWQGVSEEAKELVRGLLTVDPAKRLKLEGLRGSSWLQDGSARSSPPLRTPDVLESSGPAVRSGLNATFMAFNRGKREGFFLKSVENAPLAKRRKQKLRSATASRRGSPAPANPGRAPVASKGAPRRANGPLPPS
Sequence of Phosphatidylinositol 4,5-bisphosphate 3-kinase catalytic subunit alpha isoform (Homo sapiens), P42336 [I800L] (P42336 whole entry I800L, canonical isoform): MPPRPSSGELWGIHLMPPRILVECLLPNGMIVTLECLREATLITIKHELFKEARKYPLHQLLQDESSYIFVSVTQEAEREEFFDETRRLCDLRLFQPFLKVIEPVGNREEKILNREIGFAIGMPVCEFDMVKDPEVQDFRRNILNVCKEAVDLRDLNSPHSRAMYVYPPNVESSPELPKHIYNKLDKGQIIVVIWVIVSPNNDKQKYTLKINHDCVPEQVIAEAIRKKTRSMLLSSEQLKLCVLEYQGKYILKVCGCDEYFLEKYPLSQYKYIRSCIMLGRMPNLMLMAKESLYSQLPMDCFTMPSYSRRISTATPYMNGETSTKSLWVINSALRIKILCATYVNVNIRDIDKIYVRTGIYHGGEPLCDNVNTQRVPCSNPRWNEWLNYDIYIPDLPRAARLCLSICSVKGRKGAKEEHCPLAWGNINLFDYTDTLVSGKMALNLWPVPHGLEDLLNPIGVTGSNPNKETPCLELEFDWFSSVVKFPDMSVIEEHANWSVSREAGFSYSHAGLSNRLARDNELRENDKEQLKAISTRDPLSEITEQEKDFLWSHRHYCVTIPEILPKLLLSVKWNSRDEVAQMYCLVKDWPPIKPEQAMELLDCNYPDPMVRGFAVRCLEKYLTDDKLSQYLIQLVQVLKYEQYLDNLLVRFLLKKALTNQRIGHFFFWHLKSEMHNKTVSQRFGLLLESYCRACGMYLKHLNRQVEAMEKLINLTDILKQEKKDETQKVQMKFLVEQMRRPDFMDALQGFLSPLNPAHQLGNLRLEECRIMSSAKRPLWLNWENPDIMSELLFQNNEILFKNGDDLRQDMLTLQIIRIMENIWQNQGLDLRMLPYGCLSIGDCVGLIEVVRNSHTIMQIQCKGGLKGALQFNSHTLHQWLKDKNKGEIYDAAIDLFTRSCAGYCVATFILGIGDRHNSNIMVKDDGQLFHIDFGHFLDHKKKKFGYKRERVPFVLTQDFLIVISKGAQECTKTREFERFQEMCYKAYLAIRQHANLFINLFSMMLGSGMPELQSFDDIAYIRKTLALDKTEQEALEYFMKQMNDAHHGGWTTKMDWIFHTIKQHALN
Sequence of Serine/threonine-protein kinase 32C (Homo sapiens) (Q86UX6 whole entry, canonical isoform): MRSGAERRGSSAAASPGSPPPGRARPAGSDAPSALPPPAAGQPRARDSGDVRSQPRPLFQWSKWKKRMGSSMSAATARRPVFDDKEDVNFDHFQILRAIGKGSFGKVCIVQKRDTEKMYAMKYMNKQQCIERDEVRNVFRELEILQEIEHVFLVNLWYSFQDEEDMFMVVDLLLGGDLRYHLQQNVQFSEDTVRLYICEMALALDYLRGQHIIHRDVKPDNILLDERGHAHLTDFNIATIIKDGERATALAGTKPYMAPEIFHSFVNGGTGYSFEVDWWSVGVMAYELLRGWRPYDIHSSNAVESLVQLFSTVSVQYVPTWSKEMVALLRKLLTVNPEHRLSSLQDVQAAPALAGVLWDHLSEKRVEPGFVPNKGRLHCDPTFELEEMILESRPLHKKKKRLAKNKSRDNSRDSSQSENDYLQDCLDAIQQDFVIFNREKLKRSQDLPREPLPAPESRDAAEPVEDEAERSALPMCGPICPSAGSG
Sequence of Glycogen synthase kinase-3 alpha (Homo sapiens) (P49840 2-483 limits assumed): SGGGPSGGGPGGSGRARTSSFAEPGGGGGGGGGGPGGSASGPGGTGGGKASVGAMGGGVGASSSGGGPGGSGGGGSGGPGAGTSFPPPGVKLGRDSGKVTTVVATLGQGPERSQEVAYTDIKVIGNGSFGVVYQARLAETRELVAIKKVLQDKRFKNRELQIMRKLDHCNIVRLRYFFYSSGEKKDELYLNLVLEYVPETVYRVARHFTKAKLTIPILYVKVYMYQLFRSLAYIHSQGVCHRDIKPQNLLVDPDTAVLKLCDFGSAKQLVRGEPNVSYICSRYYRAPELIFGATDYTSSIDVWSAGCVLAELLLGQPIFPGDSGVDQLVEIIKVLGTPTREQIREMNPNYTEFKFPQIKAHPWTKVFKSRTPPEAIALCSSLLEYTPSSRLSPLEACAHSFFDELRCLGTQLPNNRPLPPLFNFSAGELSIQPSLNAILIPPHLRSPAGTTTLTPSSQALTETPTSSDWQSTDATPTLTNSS
Sequence of Testis-specific serine/threonine-protein kinase 1 (Homo sapiens) (Q9BXA7 whole entry): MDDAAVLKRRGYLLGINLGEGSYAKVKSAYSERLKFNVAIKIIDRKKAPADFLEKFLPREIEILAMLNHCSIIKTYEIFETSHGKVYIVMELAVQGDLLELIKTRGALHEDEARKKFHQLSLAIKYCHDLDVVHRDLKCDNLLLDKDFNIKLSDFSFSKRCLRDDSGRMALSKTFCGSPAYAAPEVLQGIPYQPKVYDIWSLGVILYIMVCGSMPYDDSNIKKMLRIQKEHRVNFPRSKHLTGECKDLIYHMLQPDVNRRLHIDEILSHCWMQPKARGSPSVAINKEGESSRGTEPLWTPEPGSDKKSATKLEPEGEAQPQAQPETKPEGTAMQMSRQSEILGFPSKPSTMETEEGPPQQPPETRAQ
Sequence of Histamine H4 receptor (Homo sapiens) (Q9H3N8 whole entry): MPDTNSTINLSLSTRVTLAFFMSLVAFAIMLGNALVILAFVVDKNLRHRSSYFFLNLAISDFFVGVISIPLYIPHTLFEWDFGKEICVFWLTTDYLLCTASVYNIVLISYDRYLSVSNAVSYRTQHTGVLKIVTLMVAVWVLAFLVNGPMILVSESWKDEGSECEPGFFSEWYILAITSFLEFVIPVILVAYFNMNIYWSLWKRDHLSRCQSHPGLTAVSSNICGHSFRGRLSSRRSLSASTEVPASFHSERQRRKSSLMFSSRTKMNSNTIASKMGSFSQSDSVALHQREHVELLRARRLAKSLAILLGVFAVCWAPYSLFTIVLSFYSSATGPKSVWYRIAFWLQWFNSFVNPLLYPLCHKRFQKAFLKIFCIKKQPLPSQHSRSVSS
Sequence of Phosphatidylinositol 4,5-bisphosphate 3-kinase catalytic subunit alpha isoform (Homo sapiens), P42336 [E545A] (P42336 whole entry E545A, canonical isoform): as the sequence (P42336 whole entry I800L, canonical isoform) above, with E545A, L800I counted along it

CN(C)CC#Cc1ccc(OCCCc2sc(N3CCc4cccc(C(=O)Nc5nc6ccccc6s5)c4C3)nc2C(=O)O)c(F)c1 [A-1155463]
inactive: residual activity [1] 100% | residual activity [2] 100% | residual activity [3] 86% | residual activity [4] 100% | residual activity [5] 100% | residual activity [6] 97% | residual activity [7] 89% | residual activity [8] 100% | residual activity [9] 95% | residual activity [10] 100% | residual activity [11] 97% | inhibition [12] 6.5% | residual activity [13] 93% | residual activity [14] 84% | residual activity [15] 100% | residual activity [16] 98% | residual activity [17] 100% | inhibition [18] 11.3% | residual activity [19] 94% | residual activity [20] 98% | residual activity [21] 100% | residual activity [23] 97% | residual activity [24] 100% | residual activity [25] 100% | residual activity [26] 100% | residual activity [27] 88% | residual activity [28] 100% | residual activity [29] 100% | residual activity [30] 70% | residual activity [31] 76% | residual activity [32] 94% | inhibition [33] 1.52% | residual activity [34] 75% | residual activity [35] 75% | residual activity [36] 100% | residual activity [37] 100% | residual activity [38] 100% | residual activity [39] 87% | residual activity [40] 97% | residual activity [41] 88% | residual activity [42] 100% | residual activity [43] 100% | residual activity [44] 100%
2120 nM: Ki [22]
